What was measured:
[1] = tested on: HBL100 cells (human mammary epithelium); experiment: Cell adhesion test to immobilized peptides, HBL100; format: cell-based
Method: (§1) Dose-dependent cell adhesion of cell line HBL100 to various peptides 1, 2 and 3. The peptides were immobilized in 96-well plates at the concentrations given on the abscissa. 8×10^4 cells were deposited in each well and plates were incubated at 37° C. for 1 hour. After washing, attached cells were fixed and cell adhesion was measured as described in the methodology section.
(§2) Peptides 1, 2 and 3 were used for the cell adhesion experiments. A range of 7 decreasing concentrations (100 micrograms/ml, 50 micrograms/ml, 25 micrograms/ml, 12.5 micrograms/ml, 6.25 micrograms/ml, 3.125 micrograms/ml and 1.562 micrograms/ml) was made up by successive dilution in PBS (Phosphate Buffer Saline, KH2PO4 1.54 mM; Na2HPO4 1.42 mM; NaCl-131 mM) using a starting solution at a concentration of 1 mg/ml. These solutions were immediately distributed onto a 96-well culture plate (Greinher, Dutscher, Brumath, France) at a rate of 100 μl per well. Plates were then placed at +4° C. for 16 to 18 hours. The solutions were then removed by turning the plates and each well was saturated with a 1% PBS-BSA solution (bovine serum albumin). Three additional wells without the substrate underwent the same treatment and were used as blanks.
(§3) Epithelial cells were detached from the culture dishes using a trypsin/EDAT solution (0.05-0.02%) then suspended in DMEM medium without additives for the cell lines and in KBM-2 without additive for human keratinocytes. The number of seeded cells per well is given in the graphs (50,000 to 100,000 cells per well).
(§4) After cell seeding, the multi-well plates were placed in an incubator at 37° C. under 5% CO2. After incubation for 30 to 60 minutes, cells were observed under a phase contrast microscope in order to verify that the test was conducted correctly. The adhesion medium was then removed and each well was washed in a sterile PBS solution to remove non-adhering cells. The remaining cells, attached to the substrate, were then fixed using a solution of 1% glutaraldehyde in PBS for 15 minutes. The glutaraldehyde solution as removed and the cells were stained with a crystal violet solution diluted to 1% in distilled water for 30 minutes.
(§5) After rinsing in water several times, cells were permeabilized by means of a 0.02% triton solution for 15 minutes in order to solubilize the crystal violet. Absorbances were read at 570 nm using an ELISA plate reader (MR500, Dynatech, Guernsey, Channel Islands). Each experimental point was carried out in triplicate. The blank value represented the mean absorbance of 3 control wells (BSA). This was subtracted from each of the optical density values for the experimental points. We then calculated the mean for the three absorbance values for each of the triplicate samples.
(§6) The results are presented in the form of a graph with the absorbance values on the ordinate and the various substrate concentrations on the abscissa. Attached cells were photographed by phase contrast microscopy.
(§7) The following cells from epithelial cell lines were used initially (commonly used in preliminary studies on cell adhesion): • line HT1080 cells (human fibrosarcoma), American Type Culture Collection CCL-121. • line HB100 cells (human mammary epithelium), American Type Culture Collection HTB-124. • line A431 cells (skin epitheliods), American Type Culture Collection CRL-1555.

[2] = Quantity of peptide immobilized on 96-well plates by amino acid analysis; details: 18 hours at +4° C.
Method: The peptide was diluted in sterile PBS. Samples containing the peptide to be assayed were lyophilized by evaporation. They were deposited in a reactor and placed under vacuum in order to eliminate oxygen likely to oxidize certain amino acids. Hydrolysis of the peptide bonds was carried out in a hydrochloric acid mixture (HCL 6N, ⅔), trifluoroacetic acid (TFA, ⅓) at 150° C. for 45 minutes. Gas hydrolysis prevented contamination by ions present in the acids. The samples were then dried and dissolved in a suitable buffer for ion-exchange chromatography (sodium citrate). Ion-exchange chromatography makes it possible to separate amino acids according to their ionic strength and, on leaving the column, they react with a reagent (ninhydrin) to form a dyed complex with primary amines (violet, readable at 570 nm). Ninhydrin also reacts with secondary amines (proline, hydroxyproline) to form a yellow compound that can be read at 440 nm. Two separate chromatograms allow the samples to be analysed.
A semi-automatic Beckman 6300 analyser optimised for this analysis was used along with Beckman Gold software in order to quantify the chromatograms. […]
FIG. 17 gives the data obtained in the experiments aimed at identifying the assay conditions for the peptide deposited in 96-well plates and not immobilized. Five experiments were carried out with decreasing quantities of peptide, from 5 μg to 0.7 μg. […]

[3] = tested on: A431 cells (skin epitheloids); experiment: Cell adhesion test to immobilized peptides, A431; format: cell-based
Method: as §1, with “A431” for “HBL100”
as §2, §3, §4, §5, §6, §7

**Q.** Which “cell adhesion to immobilized peptide” value ([1]; HBL100, 0 to 10 micrograms immobilized peptide, 8×10^4 cells per well, 1 hour 37° C., absorbance 570 nm) does the source give for “TALRIRATYGEY (Human laminin 5) [Peptide 1]” here?
**A.** led to cell adhesion

**Q.** And the “immobilized peptide quantity at which adhesion occurred” value ([1]; HBL100, FIG. 2)?
**A.** 0.31 micrograms

**Q.** What about the “immobilized peptide quantity at which maximum adhesion was achieved” value ([1]; HBL100, FIG. 2) of the same sequence?
**A.** 1.25 micrograms

**Q.** And the “quantity of peptide remaining in the supernatant after immobilization, of quantity added” value ([2]; 3.55 μg, 2.56 μg, 1.23 μg and 0.73 μg deposited)?
**A.** approximately 90%

**Q.** And the “mean quantity remaining in solution in the wells” value ([2]; Q1, average starting quantity 2.44 μg, five supernatants)?
**A.** 2.212 µg

**Q.** What about the “immobilized peptide quantity at which adhesion occurred” value ([3]; A431) of the same sequence?
**A.** 0.62 micrograms

**Q.** What about the “immobilized peptide quantity at which maximum adhesion was achieved” value ([3]; A431) of the same sequence?
**A.** 1.2 micrograms

**Q.** What about the “cell adhesion to immobilized peptide” value ([3]; A431, 0 to 10 micrograms immobilized peptide, 8×10^4 cells per well, 1 hour 37° C., absorbance 570 nm) of the same sequence?
**A.** led to cell adhesion

Source: patent publication US7645740B2, “Peptide sequence found in Laminin 5 for treating skin impairments” (Laboratoires d'Anjou Centre National de la Recherche …, priority 2004, dated 2010)
